Data published in patent publication US10918727B2, “Peptide with ability to penetrate cell membrane” (ICURE BNP CO., LTD., priority 2016, dated 2021).

Test system: male ICR mice
Assay: Repeated-dose toxicity of nasal insulin formulations (10 days)
Assay type: in vivo, mouse
Conditions: intranasal once a day for 10 days (insulin 2 IU/kg)
Experimental: The collected blood was centrifuged to isolate serum, and the isolated serum was analyzed using an automatic serum analyzer. […] From the organ tissue, paraffin sections were prepared, and then stained with H&E (Hematoxylin and Eosin). Histopathological examination of the stained tissues was performed using an optical microscope.

C[C@H](CCC(=O)NCCS(=O)(=O)[O-])[C@H]1CC[C@H]2[C@@H]3CC[C@@H]4C[C@H](O)CC[C@]4(C)[C@H]3C[C@H](O)[C@]12C.[Na+] [sodium taurodeoxycholate]
histological evaluation of the nasal mucosal tissue: destroyed
